Here are results for two compounds from the NIST ThermoML archive (doi:10.1016/j.jct.2008.12.015).

Numbers after ± are expanded uncertainties.

Data set [1] can be described thus: molar enthalpy of vaporization or sublimation. The note with it: Static calorimetry.
The conditions of data set [2]: Crystal; for mass density: 298.15 K, 101.33 kPa; for Normal melting temperature: DTA.

A word on the mass density: it is mass per unit of volume. Turning to `CC(C)(C)c1ccc(-c2ccc(C(C)(C)C)cc2)cc1` [4,4'-bis(1,1-dimethylethyl)-1,1'-biphenyl], the molar enthalpy in data set [1] (399.15 K, Crystal) came out at 23.8 ± 0.406 kcal/mol. Moreover, in data set [2], the mass density is 950 kg/m3 and the Normal melting temperature came out at 127.7 ± 0.4 °C.
As for `CC(C)(C)c1ccc(-c2ccccc2)cc1` [4-(1,1-dimethylethyl)-1,1'-biphenyl], in data set [1] (322.65 K, Crystal), the molar enthalpy stood at 23.3 ± 0.382 kcal/mol. The molar enthalpy in data set [1] (334 K, Liquid) turned out to be 18.4 ± 0.206 kcal/mol. Also, in data set [2], the mass density came out at 1030 kg/m3 and the Normal melting temperature was 51.6 ± 0.4 °C.
